Assay results taken from patent US20220249418A1, “COMPOSITIONS COMPRISING AMINO ACIDS FOR USE IN THE TREATMENT OF MITOCHONDRIAL DYSFUNCTION-RELATED DISEASES” (PROFESSIONAL DIETETICS INTERNATIONAL S.R.L., priority 2017, published 2022).

Tested on: HL-1 cardiomyocytes
Experiment: oxygen consumption (Clark-type oxygen electrode)
Format: cell-based, Mus musculus
Settings: HL-1 cells, 48 hr treatment, normalized to protein content; FIG. 5
Protocol: HL-1 cardiomyocytes (a gift from W. C. Claycomb, New Orleans, School of Medicine) were plated in fibronectin/gelatin-coated flasks, grown to 70%-80% confluence in Claycomb medium (JRH Biosciences) supplemented with 100 μM norepinephrine (from a 10 mM norepinephrine [Sigma-Aldrich] stock solution dissolved in 30 mM L-ascorbic acid [Sigma-Aldrich]), 2 mM L-glutamine, 100 U/ml penicillin, 100 μg/ml streptomycin and 10% FBS (JRH Biosciences) as disclosed in Claycomb et al., 1998.
At the end of these periods, mRNA and DNA were extracted from the cells or the cells were used to evaluate the oxygen consumption. Control cells were treated with Claycomb medium only.
An amount of 1 ml of HL-1 cardiomyocytes treated with the compositions shown in Table 1 was re-suspended in Hank's balanced salt solution (Sigma) and spun down to pellet cells. A number of HL-1 cells was also supplemented with a nitic oxide (NO) donor, specifically with diethylenetriamine-NO also called (DETA-NO; Sigma-Aldrich, Milan, Italy), as positive control. […]
Samples were analyzed at 37° C. in a gas-tight vessel equipped with a Clark-type oxygen electrode (Rank Brothers Ltd.) connected to a chart recorder. […]
Oxygen consumption was assessed with continuous mixing for about ten minutes. […] Protein content was determined by using the bicinchoninic acid protein (BCA) assay.

For NCCN(CCN)/[N+]([O-])=N/O [DETA-NO, diethylenetriamine-NO], the oxygen consumption was “a rise of oxygen consumption was observed”.
